Measured values reported in patent publication US7846968B2, “Methods for QT interval control” (Janssen Pharmaceutica, N.V., priority 2005, dated 2010).

Key:
healthy adults = test: Double-blind, randomized, 3-way crossover, placebo- and active-control study of cardiovascular (QT/QTc) effects; format: in vivo, human; conditions: for Mean change from pretreatment baseline in QTc interval (mean ΔQTc), Bazett correction / Mean change from pretreatment baseline in QTc interval (mean ΔQTc), Individual Correction Method / Mean change from pretreatment baseline in QTc interval (mean ΔQTc), Fridericia correction: moxifloxacin 400 mg single oral dose; for Mean change from pretreatment baseline in QTc interval (mean ΔQTc), Fridericia correction: time-matched baseline Day 0; for Maximum decrease in QTc-F compared to baseline: individual subjects; for Maximum decrease in QTc-F compared to baseline / Number of subjects with QTc shortening between 30 and 60 ms compared to baseline: QTc-F; for Reduction of the mean QTc-F interval compared to pretreatment baseline (Day 0): stated as reduction
Method: (§1) The study of the cardiovascular effects of a carbamate compound of the present invention, shown as Formula 7 above, and hereafter referred to as “the test compound” was a single-center, double-blind, randomized, 3-way crossover, placebo- and active-control study. The test compound was studied at a dose of 1,500 mg/day (750 mg twice daily) both after acute dosing ([…], Day 1) and at steady state (Day 7). The study also evaluated the delayed post-treatment effects on Days 8-10. Moxifloxacin (400 mg, single oral dose) was used as an active control for the evaluation of QT/QTc on both Days 1 and 7.
(§2) Of the 38 subjects enrolled, 35 completed all 3 treatment conditions (placebo, moxifloxacin, test compound). Two subjects withdrew electively after receiving the first 3 days of the last treatment period (1 in moxifloxacin and 1 in test compound), and the last one withdrew because of an adverse event (respiratory tract infection) after the first treatment period (placebo), and before receiving any other treatment. Thus, all 38 subjects completed placebo treatment, 36 subjects completed the test compound treatment (and an additional subject provided data for Days 0 and 1 on test compound), and 36 completed moxifloxacin treatment (and 1 provided data for Days 0 and 1 on moxifloxacin). All 38 subjects were included in the safety evaluation; all collected drug level measurements and all available ECG recordings were included in data analyses.
The study population consisted of 38 healthy adults (20 men and 18 women), age 18 to 50 years, with normal 12-lead ECG (normal sinus rhythm, QTc and QRS intervals) and no history of cardiovascular disease. Of the 38 subjects enrolled, 35 completed all 3 treatment conditions (placebo, moxifloxacin, test compound). Two subjects withdrew electively after receiving the first 3 days of the last treatment period (1 in moxifloxacin and 1 in test compound), and the last one withdrew because of an adverse event (respiratory tract infection) after the first treatment period (placebo), and before receiving any.
as §2, with “The study population consisted of 38 healthy adults (20 men and 18 women), age 18 to 50 years, with normal 12-lead ECG (normal sinus rhythm, QTc and QRS intervals) and no history of cardiovascular disease. Of” for “Of”, “completed” for “completed the”
During each treatment period, 11 12-lead ECGs were collected at the same time of the day on Day 0 (baseline), Day 1 (initial treatment), and Day 7 (steady-state treatment); 4 additional ECGs were collected at exactly 24, 36, 48, and 72 hours after the last dose of Day 7 (post-treatment).
All ECG recordings of the same subject were read by the same blinded cardiologist. The QT intervals, from the onset of the QRS complex to the end of the T wave, were determined by the method of overlapping medians. The key QTc variables used in the assessment are listed below. The change from baseline (ΔQTc) was calculated using time-matched values. The following parameters were calculated for each subject and treatment by averaging over all time points during the 12-hour dosing interval. […]

[1] = Pharmacokinetics / drug level measurements in the crossover QT study; format: in vivo, human
Method: as §1
as §2, with “All 38 subjects were included in the safety evaluation; all collected drug level measurements and all available ECG recordings were included in data analyses.” left out

[2] = Day 1 (acute dosing), test compound 250 mg
[3] = Day 1 (acute dosing), test compound 250 mg, averaged over 12-hour dosing interval
[4] = Day 7 (steady state), test compound 1,500 mg/day (750 mg twice daily)

Compound	Mean change from pretreatment baseline in QTc interval (mean ΔQTc), Bazett correction (healthy adults; [2])	Mean change from pretreatment baseline in QTc interval (mean ΔQTc), Individual Correction Method (healthy adults; [2])	Mean change from pretreatment baseline in QTc interval (mean ΔQTc), Fridericia correction (healthy adults; [3])	Mean change from pretreatment baseline in QTc interval (mean ΔQTc), Bazett correction (healthy adults; [4])	Mean change from pretreatment baseline in QTc interval (mean ΔQTc), Individual Correction Method (healthy adults; [4])	Mean change from pretreatment baseline in QTc interval (mean ΔQTc), Fridericia correction (healthy adults; [4])	Maximum decrease in QTc-F compared to baseline (healthy adults) [ms]	Number of subjects with QTc shortening between 30 and 60 ms compared to baseline (healthy adults; steady state (Day 7)) [subjects]	Systemic exposure between the 2 single doses ([1]; 400 mg doses on Day 1 and Day 7)	Gender effect with regard to QTc reduction (healthy adults; 20 men and 18 women)	Delayed post-treatment effect on QT/QTc intervals (healthy adults; Days 8-10)	Reduction of the mean QTc-F interval compared to pretreatment baseline (Day 0) (healthy adults; after initial treatment (Day 1)) [ms]	Reduction of the mean QTc-F interval compared to pretreatment baseline (Day 0) (healthy adults; at steady state (Day 7)) [ms]	Lowest QTc-F value (healthy adults; observed in 3 subjects (2 test compound, 1 placebo)) [ms]	Time after the last dose of Day 7 by which the QTc shortening effect disappeared (healthy adults; post-treatment ECGs at 24, 36, 48, 72 hours) [h]	Number of subjects with QTc-F slightly below 350 ms (healthy adults; steady state (Day 7)) [subjects]	Pharmacokinetics (linearity / dose proportionality) ([1]; after single- and multiple-dose administration)
COc1c(N2C[C@@H]3CCCN[C@@H]3C2)c(F)cc2c(=O)c(C(=O)O)cn(C3CC3)c12 [Moxifloxacin, reference compound]	+6.5 ms	+6.6 ms	+6.7 ms	+3.2 ms	+0.8 ms	+1.6 ms	45	5	consistent								
NC(=O)OC[C@@H](O)c1ccccc1Cl [test compound]	-3.2 ms	-3.7 ms	-3.1 ms	-7.4 ms	-12.1 ms	-11.2 ms	47	14		no gender effect	no apparent delayed post-treatment effect	3.1	11.2	348	≤ 24	2	linear and proportional
